Positions of bridges follow the written chain, without caps; N, C: chain ends. No end group written: not given here.
Key:
Ph1 phage particles = assay: Phage infectivity studies (titre of infective phage after linker treatment); conditions: Figure 4d; phage treated with DTT (1 mM) only
Protocol: CCA: Ph1 phage particles (~ 10^11) were reduced with DTT (1 mM) for 30 min at 37 °C in a total volume of 95 µL. Linker CCA (final concentration = 150 µM) in DMSO (5% total volume) was added and the reaction was left to incubate for 2 h at room temperature. DBX: Ph1 phage particles (~ 10^11) were reduced with TCEP (1 mM) for 30 min at 37 °C in a total volume of 95 µL. Reduced Ph1 phage particles were buffer exchanged into NH4HCO3 (20 mM, pH 8.0) using Zeba™ Spin Desalting Columns (7 K MWCO, 0.5 mL) following the manufacturer’s instructions. Linker DBX (final concentration = 150 µM) in DMSO (5% total volume) was added and the reaction was left to incubate for 2 h at room temperature.
For each sample, two 100-fold dilutions in 2xTY were prepared. An aliquot (10 μL) of the 10^−4 dilution sample was added to TG1 E. coli (990 µL) grown to OD600nm = 0.6. After 1 h of infection at 37 °C and 150 RPM, four further 10-fold dilutions in 2xTY were prepared (10^−7 – 10^−10). Aliquots (100 µL) of dilution samples 10^−7 – 10^−10 were plated O/N on 2xTYAG agar at 37 °C. The next day, phage titres were calculated according to the equation.
Cfu/mL = [No. of colonies] x [Dilution factor] x [1/Volume plated (mL)].

streptavidin [1] = target: T1, streptavidin (Streptomyces avidinii, UniProt P22629); assay: Streptavidin-binding phage ELISA; conditions: for Phage ELISA signal, Linear: Figure 6a, peptide linear (reduced using DTT), bound phage detected with anti-M13-HRP; for Phage ELISA signal, Linear / Phage ELISA signal, Lin: phage clone; for Phage ELISA signal, Lin: Figure 6b, peptide linear; for Binding to streptavidin in phage ELISA (in words): phage-displayed peptide, form as stated in the sentence (CCA replaced with linkers 1, 2, 3 or 4; CCA-cyclized negative control)
T1 sequence (P22629 25-183): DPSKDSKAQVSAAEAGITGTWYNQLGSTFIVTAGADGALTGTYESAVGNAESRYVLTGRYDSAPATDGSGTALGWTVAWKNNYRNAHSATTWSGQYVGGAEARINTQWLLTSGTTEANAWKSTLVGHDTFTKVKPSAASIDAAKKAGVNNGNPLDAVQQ
Protocol: All incubation steps were performed at room temperature unless otherwise stated. A Pierce™ streptavidin-coated 96 well plate (Thermo Fisher Scientific) was treated O/N at 4 °C with biotinylated antigen (50 µL/well, 10 ng/µL in assay buffer). The next day, the plate was washed x3 with PBS to remove unbound antigen and incubated for 1 h with blocking buffer (300 µL/ well). At the same time, phage cultures (100 µL, ~ 10^10) were incubated for 1 h with blocking buffer (400 µL).
The 96-well plate was washed x3 with PBS and subsequently incubated with blocked phage (50 µL/ well) for 1 h. The plate was washed x3 with PBST, and bound phage was detected via the addition of anti-M13 HRP conjugated secondary antibody (50 µL/ well, 1/5000 dilution in blocking buffer, Abcam). After 1 h, the plate was washed x3 with PBST. HRP was developed using TMB substrate (50 µL/ well, Thermo Fisher Scientific), quenched after 5 min with H2SO4 (50 µL/ well, 0.5 M) and visualised at λ = […] using an EnVision Microplate Reader (PerkinElmer). Data was processed using SoftMax® Pro Software v7. […]
Biotinylated antigen = none required, assay buffer = N/A, blocking buffer = 3% (w/v) mPBS.

streptavidin [2] = target: T1, streptavidin; assay: Sequencing of clones enriched after three rounds of selection of library L1-CCA against streptavidin; conditions: clones sequenced after three rounds of selection against streptavidin
Protocol: Streptavidin-coated magnetic Dynabeads™ (50 μL/ selection, prewashed with 1 mL PBS) were blocked with 3% (w/v) mPBS (1 mL) for 1 h on a rotary mixer at room temperature and 20 RPM. L1 phage particles (~ 10^11) were reduced with DTT (1 mM) for 30 min at 37 °C in PBS (total reaction volume = 100 µL). The beads were pelleted on a magnetic stand and reduced L1 phage particles (~ 10^11) were added. After 1 h on a rotary mixer at room temperature and 20 RPM, the beads were pelleted and the supernatant was transferred to a fresh Eppendorf. Linker CCA (final concentration = 150 µM) in DMSO (5% total volume) was added and the reaction was left to incubate for 2 h at room temperature.
L1-CCA: Output phage from the negative streptavidin selection above.
L1-Red/ L1-CCA input phage (~ 10^11) and streptavidin-coated magnetic Dynabeads™ (50 μL/ selection, prewashed with 1 mL PBS) were incubated with 3% (w/v) mPBS (volume made up to 500 μL for phage, 1 mL for beads) for 1 h on a rotary mixer at room temperature and 20 RPM. The beads were pelleted on a magnetic stand and resuspended in 3% (w/v) mPBS (100 μL). An aliquot of the blocked beads (50 μL) was added to the blocked phage. The mixture was incubated for 1 h on a rotary mixer at room temperature and 20 RPM.
Using a Kingfisher mL apparatus, the beads were washed x5 with PBST (1 mL) and eluted into trypsin solution (10 µg/ mL trypsin in 0.1 M pH 7.0 sodium phosphate buffer, 200 µL). Trypsin digest was performed for 30 min at 37 °C and 600 RPM, the beads were pelleted and the supernatant was added to OD600nm = 0.6 TG1 E. coli (800 µL). After 1 h at 37 °C and 250 RPM, output titres were performed and the remaining cells were plated O/N on a 2xTYAG bioassay plate at 37 °C. The next day, the cells were harvested from the plate, as described below.

streptavidin [3] = target: T1, streptavidin; assay: SPR binding of synthetic peptides to immobilised streptavidin (Biacore 8K); conditions: synthetic peptide as disulphide-bonded entity, 25 °C, 4.1-9000 nM, HBS-EP+ pH 7.4
Protocol: The affinity of peptides Str1 and Str1-CCA to streptavidin was measured using the Biacore 8 K (GE Healthcare) at 25 °C.
For cyclization, peptide Str1 (5 mg, GL Biochem) was dissolved in PBS (20 mL) and treated with DTT (1.2 eq.) for 1 h at RT then linker CCA (2 eq.) for 3 h at RT. The reaction was purified by RP-HPLC and characterised by LC-MS to confirm the correct identity of the cyclized product, Str1-CCA. Str1 = 1351 Da and Str1-CCA = 1601 Da.
Streptavidin was covalently immobilised to a CM5 chip surface (Cytiva, BR100530, lot 10340325) using standard amine coupling techniques at a concentration of 16 µg/ml in 10 mM sodium acetate pH 4.5.
The peptides were serially diluted (4.1 – 9000 nM) in HBS-EP + buffer pH 7.4 and flowed over the chip at 30 µL/min, with 180 s association and 600 s dissociation. Multiple buffer-only injections were made under the same conditions to allow for double reference subtraction of the final sensorgram sets, which were analysed using Biacore 8 K Evaluation Software. Each experiment was repeated three times, which gave consistent results. Representative results are presented in the paper.

Compound | Phage ELISA signal, Linear (streptavidin [1]) | Abundance (Total = 96) (streptavidin [2]) | also measured
O[C@@H](CS)[C@@H](O)CS [DTT, reference compound] | – | – | Phage titre (Ph1 phage particles): 1.30E+11 Cfu/mL
CGGSGGC [negative control phage construct, reference compound] | 0.052 | – | Phage ELISA signal, Lin (streptavidin [1]): 0.065; Binding to streptavidin in phage ELISA (in words) (streptavidin [1]): No binding
CPFNFFIWNDEC [Str9, phage clone displaying streptavidin-selected peptide] | 0.315 | 2 | –
CPFNIASPFYGC [Str6, phage clone displaying streptavidin-selected peptide] | 0.254 | 12 | –
CPFNIKNPDDGC [Str2, phage clone displaying streptavidin-selected peptide] | 0.111 | 7 | –
CPFNILVPFIDC [Str4, phage clone displaying streptavidin-selected peptide] | 0.254 | 5 | –
CPINIFHPPPDC (disulfide 1-12 (inferred)) [Str1, streptavidin-selected peptide; tested as phage clone and as synthetic disulphide-bonded peptide] | 0.115 | 42 | SPR signal (in words) (streptavidin [3]): no SPR signal observed
CPINVQYSTGTC [Str7, phage clone displaying streptavidin-selected peptide] | 0.032 | 1 | Phage ELISA signal, Lin (streptavidin [1]): 0.106; Binding to streptavidin in phage ELISA (in words) (streptavidin [1]): no binding
CPTNTQYDLTIC | – | 4 | –
CPYNIAGPPLYC [Str3, phage clone displaying streptavidin-selected peptide] | 0.123 | 13 | –
CPYNIINPTFDC [Str5, phage clone displaying streptavidin-selected peptide] | 0.096 | 8 | –
CPYNVERPDSHC [Str8, phage clone displaying streptavidin-selected peptide] | 0.029 | 2 | –
CWLNHPQAPPEC [reference compound] | 1.437 | – | –

Reference: paper PMC11344848, “Proximity-driven site-specific cyclization of phage-displayed peptides” (Nature Communications, 2024)
